Measurements from US20180256570A1, “TOPICAL FORMULATIONS” (IGNYTA, INC., priority 2015, published 2018).

What was measured:
[1] = Accumulation in epidermis and dermis of human skin after permeability assay; type: in vitro ADME
Excerpt: All chambers were covered to minimize evaporation.
The concentration of the test compounds is expressed as the amount (μg) normalized by the tissue weight of each layer (g).

[2] = Human cadaver skin permeability assay, Franz diffusion cells (flux, Papp)
Protocol: Static, vertical glass Franz diffusion cells were used for the permeability assay.
The dosing solution with control compounds (atenolol and testosterone, 100 μM each) was prepared in PBS buffer at pH 7.4 immediately prior to the start of the permeability experiments. The skin was kept frozen at −80° C. until the time of the study. The skin was thawed at room temperature and cut to appropriate size (˜2×2 cm). The thickness of each piece was measured and they were grouped based on thickness to ensure that the average thickness was similar across groups. Tissue was mounted in the Franz cell diffusion chamber and clamped between the donor and receiver chambers. The exposed surface area of the Franz cell diffusion chamber was 1.77 cm^2. The receiver compartment was filled with 8 mL PBS at pH 7.4 with 1% Oleth 20 for all test groups, or PBS at pH 7.4 for the control group. The reservoir also contained a magnetic stir bar, stirring at 400 RPM to ensure homogeneity of the reservoir contents. […]
Each formulated test compound (35.4 μL by volume) was dispensed into the donor chamber using the reverse pipetting technique, after warming the cream in a water bath at 37° C. […] Each formulation was also analyzed to verify the concentration of the test compound. […]

[3] = Solubility in common topical excipients and solvent mixtures; type: physicochemical
[4] = Stress testing with pure excipients (adduct formation); type: physicochemical
Protocol: Stress testing with pure excipients was also conducted.

[5] = Solubility in IPA/DMSO and IPA/water/DMSO solutions; type: physicochemical

SMILES: Cc1c(C(=O)Nc2ccc(N3C[C@@H](C)O[C@@H](C)C3)nc2)cccc1-c1ccc(OC(F)(F)F)cc1 [LDE225]
- accumulation in dermis, comparison [1]: significantly less
- accumulation in epidermis, comparison [1]: significantly less
- flux, comparison between formulations ([2]; human cadaver skin): tended to be lower than that of Formulation A2

SMILES: C[C@]12CC[C@H]3[C@@H](CCC4=CC(=O)CC[C@@]43C)[C@@H]1CC[C@@H]2O [testosterone]
- ratio of testosterone to atenolol Papp ([2]; control compounds, 100 μM each in PBS pH 7.4): greater than 2

SMILES: CN(C(=O)c1ccc(F)cc1C(F)(F)F)C1CCN(c2nnc(-c3ccnn3C)c3ccccc23)CC1 [4-fluoro-N-methyl-N-(1-(4-(1-methyl-1H-pyrazol-5-yl)phthalazin-1-yl)piperidin-4-yl)-2-(trifluoromethyl)benzamide]
- Solubility in cosolvent, aqueous and lipophilic mixtures ([3]; Table 2 (not given)): solubility is highest in ethanol/water mixtures
- Solubility ([3]; solvent DMSO): 27.65 mg/g
- Solubility ([3]; solvent EtOH): 13.66 mg/g
- Solubility ([3]; solvent EtOH-Water (1:1) v/v): 2.51 mg/g
- Solubility ([3]; solvent EtOH-Water (3:1) v/v): 18.76 mg/g
- Solubility ([3]; solvent IPA-Water (3:1) v/v): 18.73 mg/g
- Solubility ([3]; solvent Isopropyl alcohol): 5.15 mg/g
- Solubility ([3]; solvent NMP): 107.02 mg/g
- adduct formation ([4]; excipients containing unhindered hydroxyl groups (ethanol, benzyl alcohol, Transcutol)): Adducts were observed
- adduct formation ([4]; isopropyl alcohol): no adduct was observed
- solubility in IPA/DMSO solutions ([5]; above 20% DMSO, increasing DMSO, absence of water): increased
- solubility in IPA/water/DMSO solutions ([5]; as percentage of water increased (5%, 10%, 20% or 30% water)): less solubility
